Measured values taken from ChEMBL document CHEMBL1201862, “PubChem BioAssay data set” (2004).
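Cells were grown in 96-well plates and exposed to each compound for 48 hours at five concentrations; endpoints were interpolated linearly between bracketing concentrations, or set to the highest concentration if not reached. Abbreviation: GI50, concentration required for 50% inhibition of growth.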 Calls of active or inactive are those of the source. No stated cut-off is given here; in the data, active = GI50 up to about 1.1 µM and inactive = higher.

Legend:
Experiment in all cases: DTP human tumour cell line panel, 48 h
ACHN = system: ACHN
CAKI-1 = system: CAKI-1
KM12 = system: KM12
M14 = system: M14
MCF7 = system: MCF7
MDA-MB-231 = system: MDA-MB-231
NCI-H23 = system: NCI-H23
NCI-H522 = system: NCI-H522
RXF 393 = system: RXF 393
SK-MEL-28 = system: SK-MEL-28
SN12C = system: SN12C
SNB-19 = system: SNB-19
SNB-75 = system: SNB-75
T47D = system: T47D
TK-10 = system: TK-10
UO-31 = system: UO-31
A498 = system: A498
HOP-92 = system: HOP-92
Hs-578T = system: Hs-578T
RPMI-8226 = system: RPMI-8226

Measured: GI50

COc1ccc(C2(CC(C)C)CCN(S(=O)(=O)c3ccc(C)cc3)C2)cc1OC (configuration not stated)
inactive: ACHN 36.6 µM | CAKI-1 > 100 µM | KM12 23.3 µM | M14 34.8 µM | MCF7 32.2 µM | MDA-MB-231 > 100 µM | NCI-H23 29.8 µM | NCI-H522 25.8 µM | RXF 393 34 µM | SK-MEL-28 30.1 µM | SN12C > 100 µM | SNB-19 49.7 µM | SNB-75 36.9 µM | T47D 14.4 µM | TK-10 63.5 µM | UO-31 41.6 µM

O=c1cc(-c2ccccc2)oc2ccc(-c3ccc4oc(-c5ccccc5)cc(=O)c4c3)cc12
inactive: A498 14.7 µM | ACHN 20.5 µM | CAKI-1 16.6 µM | HOP-92 14.4 µM | Hs-578T 12.2 µM | M14 16.6 µM | MCF7 18.8 µM | NCI-H23 15.7 µM | RPMI-8226 13.5 µM | SN12C > 10 µM | SNB-19 6.82 µM | TK-10 29.4 µM | UO-31 8.95 µM

CCOC(=O)CC1C(C(=O)OCC)=Cn2c([nH]c3cccc4cccc2c43)=C1C(=O)OCC (configuration not stated)
inactive: A498 > 100 µM | ACHN > 100 µM | CAKI-1 > 100 µM | HOP-92 > 100 µM | KM12 > 100 µM | M14 > 100 µM | MCF7 > 100 µM | NCI-H23 > 100 µM | RPMI-8226 > 100 µM | RXF 393 > 100 µM | SK-MEL-28 > 100 µM | SN12C > 100 µM | SNB-19 > 100 µM | SNB-75 > 100 µM | T47D 43.8 µM | TK-10 > 100 µM | UO-31 > 100 µM

Cc1oc(N)c(S(=O)(=O)/C(C#N)=C/c2ccccc2[N+](=O)[O-])c1C
inactive: A498 85.5 µM | ACHN 25.4 µM | CAKI-1 22.6 µM | HOP-92 34.7 µM | KM12 25.2 µM | M14 18.5 µM | MCF7 31.1 µM | MDA-MB-231 32.9 µM | NCI-H23 23.6 µM | NCI-H522 19.1 µM | RPMI-8226 27.9 µM | RXF 393 21.9 µM | SK-MEL-28 24.2 µM | SN12C 22.9 µM | SNB-19 33.5 µM | SNB-75 33.2 µM | T47D 27 µM | TK-10 50.2 µM | UO-31 16.4 µM

Cc1ccc(S(=O)(=O)c2ccccn2)cc1
inactive: A498 > 100 µM | ACHN > 100 µM | CAKI-1 > 100 µM | HOP-92 > 100 µM | KM12 > 100 µM | M14 > 100 µM | NCI-H23 > 100 µM | NCI-H522 > 100 µM | RPMI-8226 > 100 µM | RXF 393 > 100 µM | SK-MEL-28 > 100 µM | SN12C > 100 µM | SNB-19 > 100 µM | SNB-75 90.8 µM | TK-10 > 100 µM | UO-31 > 100 µM

c1ccc2c(c1)cc(C1NCCc3nc[nH]c31)c1ccccc12 (configuration not stated)
inactive: A498 22.5 µM | ACHN 23.2 µM | CAKI-1 48.8 µM | HOP-92 > 44.4 µM | KM12 47.6 µM | M14 18.5 µM | NCI-H23 > 100 µM | NCI-H522 27.7 µM | RPMI-8226 37.6 µM | RXF 393 31.7 µM | SK-MEL-28 > 47.6 µM | SN12C 56 µM | SNB-19 > 100 µM | SNB-75 32.7 µM | TK-10 > 100 µM | UO-31 33.7 µM

O=C1NC2(CCCC2)C(=O)C12CCCC2
inactive: A498 > 100 µM | ACHN > 100 µM | CAKI-1 > 100 µM | HOP-92 > 100 µM | KM12 > 100 µM | M14 > 100 µM | NCI-H23 > 100 µM | NCI-H522 > 100 µM | RPMI-8226 > 100 µM | RXF 393 > 100 µM | SK-MEL-28 > 100 µM | SN12C > 100 µM | SNB-19 > 100 µM | SNB-75 > 100 µM | TK-10 > 100 µM | UO-31 > 100 µM

O=C1C=Cc2c(I)sc(I)c21
inactive: A498 48.5 µM | ACHN 36.6 µM | CAKI-1 18.7 µM | HOP-92 17 µM | KM12 20 µM | M14 27 µM | MCF7 18.4 µM | MDA-MB-231 29.9 µM | NCI-H23 18.9 µM | NCI-H522 1.99 µM | RXF 393 20.6 µM | SK-MEL-28 19.8 µM | SN12C 19.5 µM | SNB-75 30.1 µM | T47D 18.1 µM | TK-10 30.2 µM | UO-31 15.8 µM

CC(=O)OC1(C#N)CC2OC1C1N=NN(C(=O)OC(C)(C)C)C21 (configuration not stated)
inactive: A498 > 100 µM | ACHN > 100 µM | CAKI-1 > 31.6 µM | HOP-92 20.7 µM | M14 21.7 µM | NCI-H23 > 10 µM | NCI-H522 > 100 µM | RPMI-8226 30.3 µM | RXF 393 > 31.6 µM | SK-MEL-28 16.9 µM | SN12C 39.7 µM | SNB-19 > 100 µM | SNB-75 70.1 µM | TK-10 > 100 µM | UO-31 > 100 µM

COC(=O)N/N=C(\C)C(CN(C)C)C(c1ccccc1)c1c(O)c2ccccc2oc1=O (configuration not stated)
inactive: A498 > 100 µM | ACHN > 100 µM | CAKI-1 > 100 µM | HOP-92 27.2 µM | KM12 > 100 µM | M14 > 100 µM | NCI-H23 > 100 µM | NCI-H522 14.2 µM | RPMI-8226 > 100 µM | RXF 393 > 100 µM | SK-MEL-28 > 100 µM | SN12C > 100 µM | SNB-19 > 100 µM | SNB-75 > 100 µM | TK-10 > 100 µM | UO-31 > 100 µM

C#CCOCn1cnc2ncnc(N)c21
inactive: A498 > 100 µM | ACHN > 100 µM | CAKI-1 > 100 µM | HOP-92 > 100 µM | KM12 > 100 µM | NCI-H23 > 100 µM | NCI-H522 > 100 µM | RPMI-8226 > 100 µM | RXF 393 > 100 µM | SK-MEL-28 > 100 µM | SN12C > 100 µM | SNB-19 > 100 µM | SNB-75 > 100 µM | TK-10 > 100 µM | UO-31 > 100 µM

COC(=O)C1C(OCc2ccccc2)C2CCC1(OC)C=C2C (configuration not stated)
inactive: A498 > 100 µM | ACHN > 61.8 µM | CAKI-1 > 77.6 µM | HOP-92 > 100 µM | KM12 > 100 µM | M14 60.8 µM | NCI-H23 > 88.5 µM | NCI-H522 29.4 µM | RPMI-8226 23.6 µM | RXF 393 54.3 µM | SK-MEL-28 > 100 µM | SN12C > 100 µM | SNB-19 > 81.8 µM | SNB-75 > 100 µM | TK-10 > 74.3 µM | UO-31 > 100 µM
